The target of one assay is Acetylcholinesterase (Electrophorus electricus, UniProt O42275).
Another assay concerns the target T1, Chitinase B (Serratia marcescens, UniProt P11797).
T1 sequence (P11797 whole entry): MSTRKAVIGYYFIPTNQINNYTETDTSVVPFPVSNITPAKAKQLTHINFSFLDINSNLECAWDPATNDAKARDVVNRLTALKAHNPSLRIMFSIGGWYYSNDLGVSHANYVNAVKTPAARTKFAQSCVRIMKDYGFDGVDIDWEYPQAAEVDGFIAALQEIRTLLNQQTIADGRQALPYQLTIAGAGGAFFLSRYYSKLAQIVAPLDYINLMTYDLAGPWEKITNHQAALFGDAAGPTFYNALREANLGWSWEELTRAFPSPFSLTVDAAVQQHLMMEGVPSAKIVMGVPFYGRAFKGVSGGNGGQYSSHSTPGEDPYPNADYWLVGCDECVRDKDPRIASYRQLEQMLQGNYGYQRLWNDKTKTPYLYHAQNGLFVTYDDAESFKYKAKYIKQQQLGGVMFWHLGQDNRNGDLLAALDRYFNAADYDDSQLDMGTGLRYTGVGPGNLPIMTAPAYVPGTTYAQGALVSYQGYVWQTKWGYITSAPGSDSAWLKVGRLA
The assay can be described thus: Inhibition of Serratia marcescens 6x-His-tagged ChiB after 20 hrs by LCMS-SIR analysis.

For assay [1], the target named is HTH-type transcriptional regulator EthR (Mycobacterium tuberculosis, UniProt P9WMC1). The assay is described as follows: Inhibition of Mycobacterium tuberculosis EthR.
Sequence of HTH-type transcriptional regulator EthR (P9WMC1 whole entry): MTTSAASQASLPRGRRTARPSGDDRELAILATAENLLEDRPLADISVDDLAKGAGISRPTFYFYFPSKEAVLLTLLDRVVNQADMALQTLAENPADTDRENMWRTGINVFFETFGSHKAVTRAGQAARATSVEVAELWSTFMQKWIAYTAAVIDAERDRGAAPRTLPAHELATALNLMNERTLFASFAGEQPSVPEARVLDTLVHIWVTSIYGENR
Assay [2] concerns the target T2, Bifunctional ligase/repressor BirA (Staphylococcus aureus, UniProt A0A0E7NXW5).
T2 sequence (A0A0E7NXW5 whole entry): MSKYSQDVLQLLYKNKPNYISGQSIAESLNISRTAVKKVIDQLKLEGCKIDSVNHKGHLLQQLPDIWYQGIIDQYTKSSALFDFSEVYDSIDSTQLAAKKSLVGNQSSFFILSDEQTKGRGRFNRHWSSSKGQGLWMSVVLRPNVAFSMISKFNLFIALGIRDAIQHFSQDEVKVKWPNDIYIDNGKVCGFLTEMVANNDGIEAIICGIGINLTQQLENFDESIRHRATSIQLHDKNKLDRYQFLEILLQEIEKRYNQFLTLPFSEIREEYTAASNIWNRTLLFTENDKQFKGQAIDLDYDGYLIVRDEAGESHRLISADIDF
The assay can be described thus: Inhibition of Staphylococcus aureus biotin protein ligase by LC/MS-SIM analysis.

The species named for a further assay is Homo sapiens. The assay is described as follows: Inhibition of human recombinant 14-3-3 protein at 300 uM after 8 hrs.
For the next assay, the target named is Carbonic anhydrase 2 (Homo sapiens, UniProt P00918). The assay can be described thus: Inhibition of CA2 (unknown origin).

This note sets out measurements from ChEMBL document CHEMBL4229404, “Druggability Assessment of Targets Used in Kinetic Target-Guided Synthesis” (J Med Chem, 2018).

Sequence of Acetylcholinesterase (O42275 whole entry): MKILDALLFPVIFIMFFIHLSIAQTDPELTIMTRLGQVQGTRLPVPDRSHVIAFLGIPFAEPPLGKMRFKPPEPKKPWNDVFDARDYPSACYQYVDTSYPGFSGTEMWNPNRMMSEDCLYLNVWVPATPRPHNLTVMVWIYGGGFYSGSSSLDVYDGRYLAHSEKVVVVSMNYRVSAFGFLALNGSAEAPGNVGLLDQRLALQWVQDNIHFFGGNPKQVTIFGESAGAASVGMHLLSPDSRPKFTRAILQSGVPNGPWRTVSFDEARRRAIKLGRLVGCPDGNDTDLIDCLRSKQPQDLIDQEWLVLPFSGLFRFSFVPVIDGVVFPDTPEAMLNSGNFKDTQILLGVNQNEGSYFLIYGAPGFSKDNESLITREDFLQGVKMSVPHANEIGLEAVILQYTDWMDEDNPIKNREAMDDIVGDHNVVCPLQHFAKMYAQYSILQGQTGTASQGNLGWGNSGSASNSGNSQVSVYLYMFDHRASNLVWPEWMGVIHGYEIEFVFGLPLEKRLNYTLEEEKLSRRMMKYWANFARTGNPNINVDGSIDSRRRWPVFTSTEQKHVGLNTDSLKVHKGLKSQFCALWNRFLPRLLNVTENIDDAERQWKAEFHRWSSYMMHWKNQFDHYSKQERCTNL
Description for Acetylcholinesterase: Binding affinity to electric eel AChE after 24 hrs by LC/MS-SIM analysis

On to `CC[N+](C)(CC)CCC[n+]1c(-c2ccccc2)c2cc(N)ccc2c2ccccc21`, for which the Kd (in general, the free concentration of one partner at which half of the binding sites on the other are occupied at equilibrium, for simple one-to-one binding) on Acetylcholinesterase was found to be 1100 nM. In other words, the single-digit micromolar range.
Regarding `[H]/N=C(/NCCC[C@H](NC(=O)Cn1nncc1CO/N=C/c1ccnc2ccccc12)C(=O)N(Cc1ccccc1)Cc1ccccc1)NC(=O)NC`, the IC50 (commonly the concentration that gives 50% inhibition) against Chitinase B is 22 nM.
Regarding `O=C(Cn1cc(CNS(=O)(=O)c2ccc(I)cc2)nn1)N1CCC(c2nc(-c3cccs3)no2)CC1`, the half-maximal inhibitory concentration (IC50) in assay [1] amounted to 580 nM. This counts as sub-micromolar.
Take `Nc1ncnc2c1ncn2CCCCn1cc(CCCCC[C@@H]2SC[C@@H]3NC(=O)N[C@@H]32)nn1`: the Ki (as a rule, a measure of affinity in units of concentration, obtained from inhibition or displacement) in assay [2] worked out at 660 nM.
Turning to `C=CC(C)(C)OC[C@H]1O[C@H](O[C@@H]2C3=C([C@H](C)CNC(=O)[C@H]4CO4)C[C@H](O)[C@]3(C)/C=C3/[C@@H](COC)CC[C@@]3(C)[C@@H](C)[C@H]2O)[C@H](O)[C@@H](O)[C@@H]1O`, the inhibition (in general, the share of the control response that was lost under treatment) in the assay filed under Homo sapiens stood at 37%.
In the case of `CCOC(=O)c1cccc(CSCc2ccc(S(N)(=O)=O)cc2)c1`, it took 59 nM to reach half-maximal inhibition against Carbonic anhydrase 2 (IC50).
